Results as given in patent publication US8481731B2, “Compounds, pharmaceutical composition and methods relating thereto” (Boehringer Ingelheim International GmbH, priority 2009, dated 2013).
Marks after values point to notes of the source that are not given here.

Biological target: T1, human GPR119 receptor (Homo sapiens, UniProt Q8TDV5, S329A/T327A)
T1 construct: N-terminal leader […]; expressed in transfected cells
T1 sequence (Q8TDV5 with tags, fused parts or gaps T327A/S329A): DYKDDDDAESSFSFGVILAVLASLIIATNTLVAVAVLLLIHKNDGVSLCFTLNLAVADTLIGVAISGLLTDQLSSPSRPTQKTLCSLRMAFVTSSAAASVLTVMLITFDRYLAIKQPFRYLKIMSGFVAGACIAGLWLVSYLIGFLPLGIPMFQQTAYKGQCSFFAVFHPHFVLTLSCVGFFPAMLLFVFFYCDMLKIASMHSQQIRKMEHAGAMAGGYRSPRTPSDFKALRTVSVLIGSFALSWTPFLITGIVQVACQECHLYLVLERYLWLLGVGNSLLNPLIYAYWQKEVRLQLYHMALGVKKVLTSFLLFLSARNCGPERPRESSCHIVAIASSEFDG
Assay: cAMP assay (LANCE cAMP-384 Kit), cAMP accumulation in HEK293 cells stably expressing mutant human GPR119 receptor
Assay type: cell-based
Details: cAMP accumulation; HEK293 cells stably expressing a mutant form of the human GPR119 receptor; 20 min at 37° C.
Description: Quantitative detection of cAMP accumulation from cells expressing human GPR119 receptor was achieved using Perkin Elmer's LANCE cAMP-384 Kit (Cat#AD0264) according to the manufacturer's protocol. Briefly, HEK293 cells stably expressing a mutant form of the human GPR119 receptor (Methionine 1 replaced with the amino acid sequence […], and T327 & S329 changed to alanines) were grown to 50-70% confluency in cell culture media (DMEM, 10% heat inactivated Fetal Bovine Serum, 50 I.U./mL penicillin, 50 μg/mL streptomycin, 10 mM HEPES, 20 μg/mL G418 Sulfate). On the day of the assay, GPR119 stable HEK293 cells were lifted from the tissue culture plate and 1000 cells/well were incubated along with various concentrations of test compounds for 20 min at 37° C. Detection Buffer (50 mM HEPES, 10 mM calcium chloride, 0.35% Triton X-100, 1 mg/mL BSA) containing cAMP-specific antibody was then added to all wells and allowed to equilibrate in the dark for 10 minutes at room temperature. Upon equilibration, Detection Buffer containing europium-labeled cAMP tracer complex was added to all wells and allowed to react for 1 hour at room temperature. After 1 hour, bound europium-labeled cAMP tracer was measured using a Perkin Elmer ViewLux. The quantity of cAMP generated in each well was derived from a standard curve.
For some compounds for which no EC50 value could be determined, the efficacy is provided at a single concentration (10 μM) yielding % stimulation values.

`C=CCN(c1cc(N2CCc3cc(S(C)(=O)=O)ccc32)ncn1)C1CCN(C(=O)OC(C)(C)C)CC1` [Compound 16-5] and `CCN(c1cc(N2CCc3cc(S(C)(=O)=O)ccc32)ncn1)C1CCN(C(=O)OC(C)(C)C)CC1` [Compound 16-2] are within 1.5-fold of each other in EC50: 23 nM for the first, 29 nM for the second.

Compared with `CN(c1cc(N2CCc3cc(S(C)(=O)=O)ccc32)ncn1)C1CCN(C(=O)OC(C)(C)C)CC1` [Compound 16-1, 4-{[6-(5-Methanesulfonyl-2,3-dihydro-indol-1-yl)-pyrimidin-4-yl]-methyl-amino}-piperidine-1-carboxylic acid tert-butyl ester], `CCC(C)N(c1cc(N2CCc3cc(S(C)(=O)=O)ccc32)ncn1)C1CCN(C(=O)OC(C)(C)C)CC1` (stereo not shown) [Compound 16-4] is 1.9-fold higher in EC50: 51 nM for the first, 95 nM for the second.

First: COc1c(OC2CCN(C(=O)OC(C)C)CC2)ncnc1N1CCc2cc(S(C)(=O)=O)ccc21 [Compound 8-1, 4-[6-(5-Methanesulfonyl-2,3-dihydro-indol-1-yl)-5-methoxy-pyrimidin-4-yloxy]-piperidine-1-carboxylic acid isopropyl ester]
Second: CC(C)OC(=O)N1CCC(Oc2cc(N3CCc4cc(S(C)(=O)=O)ccc43)ncn2)CC1 [Compound 4-1, 4-[6-(5-Methanesulfonyl-2,3-dihydro-indol-1-yl)-pyrimidin-4-yloxy]-piperidine-1-carboxylic acid isopropyl ester]
The EC50 of the first is 6.1-fold higher: 201 nM for the first, 33 nM for the second. The second is the more potent here.

First: CC(C)(C)OC(=O)N1CCC(Oc2cc(N3CCc4nc(Cl)ccc43)ncn2)CC1 [Compound 20-1, 4-[6-(5-Chloro-2,3-dihydro-pyrrolo[3,2-b]pyridin-1-yl)-pyrimidin-4-yloxy]-piperidine-1-carboxylic acid tert-butyl ester]
Second: CC(C)COC(=O)N1CCC(Oc2cc(N3CCc4cc(S(C)(=O)=O)ccc43)ncn2)CC1 [Compound 4-2]
The EC50 of the first is 18-fold higher: 751 nM for the first, 42 nM for the second. The second is the more potent here.

Going from `CS(=O)(=O)c1ccc2c(c1)CCN2c1cc(OC2CCN(C(=O)OC(CF)CF)CC2)ncn1` [Compound 5-5] to `CCC(C)OC(=O)N1CCC(Oc2cc(N3CCc4cc(S(C)(=O)=O)ccc43)ncn2)CC1` (stereo not shown) [Compound 5-3], the EC50 falls from 242 nM to 35 nM (6.9-fold).

`CS(=O)(=O)c1ccc2c(c1)CCN2c1cc(OC2CCN(C(=O)OC3CCN(Cc4cc(F)cc(F)c4)C3)CC2)ncn1` (stereo not shown) [Compound 21-5] and `CS(=O)(=O)c1ccc2c(c1)CCN2c1cc(OC2CCN(C(=O)OC3CCN(Cc4cccc(F)c4)C3)CC2)ncn1` (stereo not shown) [Compound 21-2] are within 1.5-fold of each other in EC50: 308 nM for the first, 278 nM for the second.

`CS(=O)(=O)c1ccc2c(c1)CCN2c1cc(OC2CCN(C(=O)OC3CCN(Cc4ccc(F)cc4)C3)CC2)ncn1` (stereo not shown) [Compound 21-3] and `CS(=O)(=O)c1ccc2c(c1)CCN2c1cc(OC2CCN(C(=O)OC3CCN(Cc4cccc(F)c4F)C3)CC2)ncn1` (stereo not shown) [Compound 21-4] are within 1.5-fold of each other in EC50: 335 nM for the first, 343 nM for the second.

Going from `CC(C)OC(=O)N1CCC(N(C)c2cc(N3CCc4cc(S(C)(=O)=O)ccc43)ncn2)CC1` [Compound 7-1, 4-[6-(5-Methanesulfonyl-2,3-dihydro-indol-1-yl)-pyrimidin-4-yl-methylamino]-piperidine-1-carboxylic acid isopropyl ester] to `CC(C)OC(=O)N1CCC(Nc2cc(N3CCc4cc(S(C)(=O)=O)ccc43)ncn2)CC1` [Compound 6-1, 4-[6-(5-Methanesulfonyl-2,3-dihydro-indol-1-yl)-pyrimidin-4-ylamino]-piperidine-1-carboxylic acid isopropyl ester], the EC50 rises from 69 nM to 611 nM (8.9-fold). The first is the more potent here.

`CS(=O)(=O)c1ccc2c(c1)CCN2c1cc(OC2CCN(C(=O)OC3CCC3)CC2)ncn1` [Compound 5-1, 4-[6-(5-Methanesulfonyl-2,3-dihydro-indol-1-yl)-pyrimidin-4-yloxy]-piperidine-1-carboxylic acid cyclobutyl ester] and `CS(=O)(=O)c1ccc2c(c1)CCN2c1cc(OC2CCN(C(=O)OCC3CC3)CC2)ncn1` [Compound 5-2] are within 1.5-fold of each other in EC50: 24 nM for the first, 23 nM for the second.

Compared with `CC(C)(C)OC(=O)N1CCC(Oc2ncnc(N3CCc4cc(S(C)(=O)=O)ccc43)c2F)CC1` [Compound 13-1, 4-[5-Fluoro-6-(5-methanesulfonyl-2,3-dihydro-indol-1-yl)-pyrimidin-4-yloxy]-piperidine-1-carboxylic acid tert-butyl ester], `COCN(c1cc(N2CCc3cc(S(C)(=O)=O)ccc32)ncn1)C1CCN(C(=O)OC(C)(C)C)CC1` [Compound 16-3] is 2.4-fold higher in EC50: 382 nM for the first, 906 nM for the second. The first is the more potent here.

First: COCC(C)OC(=O)N1CCC(Oc2cc(N3CCc4cc(S(C)(=O)=O)ccc43)ncn2)CC1 (stereo not shown) [Compound 5-4]
Second: CC(C)OC(=O)N1CCC(Oc2ccnc(N3CCc4cc(S(C)(=O)=O)ccc43)c2)CC1 [Compound 10-1, 4-[2-(5-Methanesulfonyl-2,3-dihydro-indol-1-yl)-pyridin-4-yloxy]-piperidine-1-carboxylic acid isopropyl ester]
The EC50 of the first is 5.9-fold lower: 100 nM for the first, 588 nM for the second. The first is the more potent here.

For `Cc1c(OC2CCN(C(=O)OC(C)C)CC2)ncnc1N1CCc2ncccc21` [Compound 9-2, 4-[6-(2,3-Dihydro-pyrrolo[3,2-b]pyridin-1-yl)-5-methyl-pyrimidin-4-yloxy]-piperidine-1-carboxylic acid isopropyl ester], the EC50 was 312 nM.

Same assay, conditions: single concentration 10 μM; given where no EC50 value could be determined; HEK293 cells expressing mutant human GPR119

Going from `CC(C)OC(=O)N1CCC(Oc2cc(N3CCc4cc(S(C)(=O)=O)ccc43)ncc2C#N)CC1` [Compound 24-1, 4-[5-Cyano-2-(5-methanesulfonyl-2,3-dihydro-indol-1-yl)-pyridin-4-yloxy]-piperidine-1-carboxylic acid isopropyl ester] to `CC(C)(C)OC(=O)N1CC[C@@H](Oc2cc(N3CCc4cc(S(C)(=O)=O)ccc43)ncn2)C1` [Compound 15-2, (R)-3-[6-(5-Methanesulfonyl-2,3-dihydro-indol-1-yl)-pyrimidin-4-yloxy]-pyrrolidine-1-carboxylic acid tert-butyl ester], the “% stimulation at 10 μM” value falls from 54% to 26%.

For `CC(C)(C)OC(=O)N1CC(Oc2cc(N3CCc4cc(S(C)(=O)=O)ccc43)ncn2)C1` [Compound 15-1, 3-[6-(5-Methanesulfonyl-2,3-dihydro-indol-1-yl)-pyrimidin-4-yloxy]-azetidine-1-carboxylic acid tert-butyl ester], the “% stimulation at 10 μM” value was 22%.

First: CS(=O)(=O)c1ccc2c(c1)CCN2c1cc(OC2CCN(C(=O)OC3CCN(Cc4c(F)cccc4F)C3)CC2)ncn1 (stereo not shown) [Compound 21-6]
Second: CS(=O)(=O)c1ccc2c(c1)CCN2c1cc(OC2CCN(C(=O)OC3CCN(Cc4ccccc4F)C3)CC2)ncn1 (stereo not shown) [Compound 21-1, 4-[6-(5-Methanesulfonyl-2,3-dihydro-indol-1-yl)-pyrimidin-4-yloxy]-piperidine-1-carboxylic acid 1-(2-fluoro-benzyl)-pyrrolidin-3-yl ester]
The “% stimulation at 10 μM” value of the first is higher: 84%* for the first, 78%* for the second.
